This passage reports % of inhibition and % of control results from ChEMBL document CHEMBL5465560, “Selectivity Literature for EUbOPEN Chemogenomic Library” (2024).

What all share (conditions): at 10 µM
Assay [1] deals with T1, Bone morphogenetic protein receptor type-2 (Homo sapiens) (UniProt Q13873).
T1 sequence (whole entry): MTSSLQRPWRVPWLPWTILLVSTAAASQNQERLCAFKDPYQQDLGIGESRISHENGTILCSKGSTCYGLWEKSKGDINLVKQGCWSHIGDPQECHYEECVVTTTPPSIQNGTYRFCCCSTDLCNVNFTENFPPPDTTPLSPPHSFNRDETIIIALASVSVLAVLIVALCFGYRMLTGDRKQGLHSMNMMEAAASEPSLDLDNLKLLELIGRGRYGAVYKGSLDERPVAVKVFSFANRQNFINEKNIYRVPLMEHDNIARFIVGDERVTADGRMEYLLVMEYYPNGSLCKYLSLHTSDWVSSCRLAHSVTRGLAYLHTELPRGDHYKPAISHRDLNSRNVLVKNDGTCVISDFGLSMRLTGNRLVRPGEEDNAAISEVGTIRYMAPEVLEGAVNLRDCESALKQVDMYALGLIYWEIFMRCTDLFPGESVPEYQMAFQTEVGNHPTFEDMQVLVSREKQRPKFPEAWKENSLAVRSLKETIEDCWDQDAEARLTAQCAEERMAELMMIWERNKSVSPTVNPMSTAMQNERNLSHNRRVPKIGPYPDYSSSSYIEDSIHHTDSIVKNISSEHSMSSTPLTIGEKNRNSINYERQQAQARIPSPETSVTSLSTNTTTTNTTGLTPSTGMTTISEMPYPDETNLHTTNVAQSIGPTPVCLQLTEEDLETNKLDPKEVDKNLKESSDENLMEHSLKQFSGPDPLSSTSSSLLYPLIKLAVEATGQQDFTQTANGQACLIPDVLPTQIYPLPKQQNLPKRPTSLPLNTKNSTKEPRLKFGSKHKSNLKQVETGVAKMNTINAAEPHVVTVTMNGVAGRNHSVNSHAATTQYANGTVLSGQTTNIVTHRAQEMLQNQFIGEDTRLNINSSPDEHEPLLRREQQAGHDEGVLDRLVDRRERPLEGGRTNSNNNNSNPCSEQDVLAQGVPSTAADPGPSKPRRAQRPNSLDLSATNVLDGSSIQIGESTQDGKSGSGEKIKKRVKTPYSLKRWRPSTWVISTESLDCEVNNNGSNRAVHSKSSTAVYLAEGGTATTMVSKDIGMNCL
Description: Selectivity interaction (LanthaScreen Eu Kinase Binding Assay) EUB0001632a BMPR2. (In general: TR-FRET usually uses a lanthanide donor and a delayed reading to cut background.)

Assay [2] concerns the target T2, Rhodopsin kinase GRK1 (Homo sapiens) (UniProt Q15835).
T2 sequence (whole entry): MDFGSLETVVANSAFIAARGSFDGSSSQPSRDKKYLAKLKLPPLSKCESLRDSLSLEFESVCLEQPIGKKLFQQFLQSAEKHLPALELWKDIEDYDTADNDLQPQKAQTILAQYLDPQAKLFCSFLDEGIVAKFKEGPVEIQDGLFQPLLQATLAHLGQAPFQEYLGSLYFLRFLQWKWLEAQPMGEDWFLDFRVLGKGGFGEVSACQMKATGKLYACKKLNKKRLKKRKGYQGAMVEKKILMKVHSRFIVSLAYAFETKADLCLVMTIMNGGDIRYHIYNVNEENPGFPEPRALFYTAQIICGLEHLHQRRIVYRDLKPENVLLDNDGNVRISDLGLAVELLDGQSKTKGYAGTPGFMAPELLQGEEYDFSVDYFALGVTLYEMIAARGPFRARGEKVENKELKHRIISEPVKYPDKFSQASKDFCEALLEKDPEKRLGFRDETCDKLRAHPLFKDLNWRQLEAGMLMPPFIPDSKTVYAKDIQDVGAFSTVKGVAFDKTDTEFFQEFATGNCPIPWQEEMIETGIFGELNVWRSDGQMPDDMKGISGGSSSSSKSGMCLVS
Nature of the assay: Selectivity interaction (KinomeScan (DiscoverX)) EUB0000618a GRK1.

Assay [3] addresses T3, Serine/threonine-protein kinase Nek9 (Homo sapiens) (UniProt Q8TD19).
T3 sequence (whole entry): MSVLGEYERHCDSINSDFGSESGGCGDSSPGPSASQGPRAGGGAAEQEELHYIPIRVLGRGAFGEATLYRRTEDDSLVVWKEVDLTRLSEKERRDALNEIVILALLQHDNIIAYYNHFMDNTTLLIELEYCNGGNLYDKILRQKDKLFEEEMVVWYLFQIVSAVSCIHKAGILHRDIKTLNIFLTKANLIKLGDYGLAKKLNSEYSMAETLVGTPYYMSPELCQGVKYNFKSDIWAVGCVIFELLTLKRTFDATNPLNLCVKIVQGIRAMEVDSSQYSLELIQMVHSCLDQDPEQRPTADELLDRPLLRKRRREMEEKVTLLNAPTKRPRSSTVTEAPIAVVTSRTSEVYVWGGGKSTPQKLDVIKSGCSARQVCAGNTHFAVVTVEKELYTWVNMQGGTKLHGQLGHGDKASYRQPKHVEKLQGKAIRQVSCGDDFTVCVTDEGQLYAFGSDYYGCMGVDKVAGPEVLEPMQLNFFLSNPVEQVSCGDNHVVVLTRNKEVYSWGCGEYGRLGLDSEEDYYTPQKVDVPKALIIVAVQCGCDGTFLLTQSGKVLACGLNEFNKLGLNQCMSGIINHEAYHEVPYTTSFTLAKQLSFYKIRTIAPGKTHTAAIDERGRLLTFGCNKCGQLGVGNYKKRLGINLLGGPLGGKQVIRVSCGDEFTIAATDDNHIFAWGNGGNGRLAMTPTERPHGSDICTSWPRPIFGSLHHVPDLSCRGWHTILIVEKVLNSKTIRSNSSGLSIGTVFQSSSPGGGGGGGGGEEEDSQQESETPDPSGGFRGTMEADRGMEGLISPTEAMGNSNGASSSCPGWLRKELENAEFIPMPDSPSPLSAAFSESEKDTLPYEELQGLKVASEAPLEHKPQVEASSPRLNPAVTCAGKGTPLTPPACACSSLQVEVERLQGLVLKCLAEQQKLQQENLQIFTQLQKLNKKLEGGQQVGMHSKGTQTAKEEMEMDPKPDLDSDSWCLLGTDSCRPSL
Description: Selectivity interaction (KinomeScan (DiscoverX)) EUB0000595a NEK9.

Turning to `Cn1cc(-n2cnc3c(NCc4nc5cc(Cl)c(Cl)cc5[nH]4)nc(N4CCOCC4)nc32)cn1`, the % of inhibition in assay [1] is -6.55%.

`O[C@H]1CC[C@H](Nc2ncc3nc(Nc4c(F)cc(F)cc4F)n([C@H]4CCOC4)c3n2)CC1` gave a % of control in assay [2] of 78%.

The compound `COCC(=O)NC/C=C/c1ccc2ncnc(Nc3ccc(Oc4ccc(C)nc4)c(C)c3)c2c1` [CP-724714] showed a % of control in assay [3] of 82%.
